Structures can show the parent of a compound that is named as a salt. Where two headings read alike, the source gives them in different places.
Columns and labels:
[1] = DPPH free radical scavenging assay; details: for DPPH Percent Inhibition (Mean ± S.E.M): n = 3
Protocol: (§1) The free radical scavenging capacity of the isolated compounds was determined using DPPH and ABTS assays. To prepare the DPPH stock solution, 30 mg of DPPH was dissolved in 100 mL of methanol. Likewise, to prepare ABTS stock solution, 383 mg of 7 mM ABTS and 66.2 mg of 2.45 mM K2S2O8 were taken, each of them was individually dissolved in 100 mL of methanol and mixed together thoroughly. For the free radical development, the solutions were kept in dark for one day. Different dilutions (62.5, 125, 250, 500, 1000 μg/mL) from each of the sample stock solutions (5 mg/5 mL of methanol) were prepared. Each of the dilutions (0.8 mL) was mixed with 0.8 mL of DPPH stock solution and incubated for 15 min and their absorbance was recorded at 515 nm. Likewise, 0.8 mL of each of the same dilutions was mixed with 2 mL of ABTS solution, incubated for 25 min and their absorbance was recorded at 745 nm. The percent scavenging potentials of compounds were calculated using the following equation:(1) Percent scavenging= A−B/A × 100, where A is the absorbance of oxidized stock (DPPH/ABTS) used as control, and B is the absorbance of the sample.

[2] = ABTS free radical scavenging assay; details: for ABTS Percent Inhibition (Mean ± S.E.M): n = 3
Protocol: as §1

[3] = target: T1, acetylcholinesterase (AChE) (Homo sapiens, UniProt P22303); assay: biochemical
T1 sequence (P22303 32-614, species assumed): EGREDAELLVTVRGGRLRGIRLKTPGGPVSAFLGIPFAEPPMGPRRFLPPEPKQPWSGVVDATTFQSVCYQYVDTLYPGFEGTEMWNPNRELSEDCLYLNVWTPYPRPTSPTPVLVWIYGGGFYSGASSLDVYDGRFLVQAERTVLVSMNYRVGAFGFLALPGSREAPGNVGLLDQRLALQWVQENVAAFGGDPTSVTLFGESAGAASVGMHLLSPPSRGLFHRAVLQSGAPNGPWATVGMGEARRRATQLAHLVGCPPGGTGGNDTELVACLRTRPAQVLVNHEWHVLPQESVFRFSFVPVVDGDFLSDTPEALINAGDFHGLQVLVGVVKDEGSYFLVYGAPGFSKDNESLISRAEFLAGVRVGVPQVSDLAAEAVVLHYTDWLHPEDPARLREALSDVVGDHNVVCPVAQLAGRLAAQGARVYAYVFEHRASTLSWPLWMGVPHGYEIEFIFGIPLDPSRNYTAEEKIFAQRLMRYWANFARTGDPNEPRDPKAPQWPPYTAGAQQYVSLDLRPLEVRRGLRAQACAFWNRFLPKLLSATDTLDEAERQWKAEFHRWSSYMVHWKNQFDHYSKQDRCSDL
Protocol: (§2) AChE and BChE were used as representative enzymes to determine the anticholinesterase effect of isolated compounds using Ellman’s assay with slight modifications. Sample stocks (5 mg/5 mL in methanol) were prepared and a range of serial dilutions (125, 250, 500, 1000 μg/mL) was made from each of them. Phosphate buffer (6.8 pH) was used for making the enzyme and substrate solutions.

[4] = target: T2, butyrylcholinesterase (BChE) (Homo sapiens, UniProt P06276); assay: Butyrylcholinesterase inhibition, Ellman's assay; assay type: biochemical; details: for inhibition at 125 µg/mL / inhibition at 250 µg/mL / inhibition at 500 µg/mL / inhibition at 1000 µg/mL: read-out: Percent BChE (Mean ± SEM), %inhibition
T2 sequence (P06276 29-602, species assumed): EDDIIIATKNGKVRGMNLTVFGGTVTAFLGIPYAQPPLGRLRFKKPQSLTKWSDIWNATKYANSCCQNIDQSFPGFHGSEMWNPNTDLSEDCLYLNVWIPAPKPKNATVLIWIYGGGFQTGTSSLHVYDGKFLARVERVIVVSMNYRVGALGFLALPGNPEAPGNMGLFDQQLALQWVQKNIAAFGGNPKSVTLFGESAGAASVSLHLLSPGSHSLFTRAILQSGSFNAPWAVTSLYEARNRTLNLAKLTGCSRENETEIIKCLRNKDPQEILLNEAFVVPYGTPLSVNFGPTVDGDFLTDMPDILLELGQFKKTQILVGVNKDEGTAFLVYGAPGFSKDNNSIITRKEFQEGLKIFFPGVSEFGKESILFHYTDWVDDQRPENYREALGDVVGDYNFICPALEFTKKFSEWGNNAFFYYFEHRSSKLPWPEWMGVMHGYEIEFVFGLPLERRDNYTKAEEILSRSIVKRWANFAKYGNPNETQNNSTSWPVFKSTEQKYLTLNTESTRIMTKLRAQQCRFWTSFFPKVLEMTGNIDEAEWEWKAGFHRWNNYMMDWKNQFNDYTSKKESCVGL
Protocol: as §2

α-amylase = assay: α-Amylase inhibition assay (DNS method); assay type: biochemical; details: for Percent Inhibition of α-Amylase (Mean ± S.E.M): n = 3
Protocol: The degree of inhibition was assessed by quantifying maltose equivalents using a slightly modified dinitrosalicylic acid (DNS) method. From each of the sample dilutions, 1 mL was pre-incubated with 1 U/mL α-amylase for half an hour. After incubation, 1 mL of 1% of starch solution was added to the mixture and further incubated for 10 min. To stop the reaction, 1 mL DNS reagent was added to the reaction mixture and heated in a boiling water bath for 5 min. […] The absorbance was measured at 540 nm.

[5] = target: T1, acetylcholinesterase (AChE); assay: biochemical; details: read-out: Percent AChE (Mean ± SEM), %inhibition
[6] = target: T2, butyrylcholinesterase (BChE); assay: Butyrylcholinesterase inhibition, Ellman's assay; assay type: biochemical; details: read-out: Percent BChE (Mean ± SEM), %inhibition
[7] = read-out: AChE IC50 (converted)
[8] = read-out: Percent AChE (Mean ± SEM), %inhibition

Structure (SMILES)	DPPH IC50 [1] [µg/mL]	DPPH Percent Inhibition (Mean ± S.E.M) ([1]; 62.5 μg/mL) [%]	DPPH Percent Inhibition (Mean ± S.E.M) ([1]; 250 μg/mL) [%]	DPPH Percent Inhibition (Mean ± S.E.M) ([1]; 500 μg/mL) [%]	DPPH Percent Inhibition (Mean ± S.E.M) ([1]; 1000 μg/mL)	ABTS IC50 [2] [µg/mL]	ABTS Percent Inhibition (Mean ± S.E.M) ([2]; 62.5 μg/mL) [%]	ABTS Percent Inhibition (Mean ± S.E.M) ([2]; 125 μg/mL) [%]	ABTS Percent Inhibition (Mean ± S.E.M) ([2]; 250 μg/mL) [%]	ABTS Percent Inhibition (Mean ± S.E.M) ([2]; 500 μg/mL) [%]	ABTS Percent Inhibition (Mean ± S.E.M) ([2]; 1000 μg/mL) [%]	IC50 [4] [µM]	inhibition at 125 µg/mL [4] [%]	inhibition at 500 µg/mL [4] [%]	inhibition at 1000 µg/mL [4] [%]	α-Amylase IC50 (α-amylase) [µg/mL]	Percent Inhibition of α-Amylase (Mean ± S.E.M) (α-amylase; 62.5 μg/mL)	Percent Inhibition of α-Amylase (Mean ± S.E.M) (α-amylase; 125 μg/mL) [%]	Percent Inhibition of α-Amylase (Mean ± S.E.M) (α-amylase; 250 μg/mL) [%]	Percent Inhibition of α-Amylase (Mean ± S.E.M) (α-amylase; 500 μg/mL) [%]	further results
O=C1O[C@H]([C@@H](O)CO)C(O)=C1O [Ascorbic Acid, reference compound]	35	55.12 ± 1.30	78.63 ± 1.48	87.87 ± 1.64	94.14 ± 1.76%	35	55.41 ± 1.39	63.30 ± 2.75	75.14 ± 3.16	83.45 ± 2.26	93.07 ± 0.53	–	–	–	–	–	–	–	–	–	DPPH Percent Inhibition (Mean ± S.E.M) ([1]; 125 μg/mL): 65.35 ± 1.08%
CC(C)CCCCC1CC2CC(C)(C)C3C4CC(C)(C)C5CC(O)CC(C)C5C4CC(C)C3C2C1 (stereo not shown) [Compound IX, 5,5,7,7,11,13-hexamethyl-2-(5-methylhexyl)icosahydro-1H-cyclopenta[a]chrysen-9-ol]	76	47.85 ± 2.61	64.11 ± 2.91	72.19 ± 2.17	80.21 ± 040 ^ns percent	76	47.83 ± 2.26	57.19 ± 2.01	62.24 ± 2.30	71.29 ± 1.11	79.23 ± 1.01	186	55.4 ± 1.01	70.2 ± 0.71	78 ± 2.62	122	40.13 ± 1.27 %	50.61 ± 1.52	59.14 ± 0.82	65.13 ± 1.43	IC50 [3, 7]: 186 µM; inhibition at 250 µg/mL [3, 8]: 63.1 ± 1.51%; inhibition at 500 µg/mL [3, 8]: 71.3 ± 1.37%; inhibition at 1000 µg/mL [3, 8]: 78.11 ± 0.61%; inhibition at 250 µg/mL [4]: 63 ± 1.45%; Percent Inhibition of α-Amylase (Mean ± S.E.M) (α-amylase; 1000 μg/mL): 70.21 ± 1.91 %; inhibition at 62.5 µg/mL [5]: 46 ± 1.71%; inhibition at 62.5 µg/mL [6]: 45.9 ± 1.26%
CCCCCCCCCCCCCCCCCCCCCC(=O)O [Compound X, docosanoic acid]	95	46.17 ± 3.01	60.61 ± 0.71	69.19 ± 2.27	78.81 ± 2.10%	95	46.01 ± 1.06	54.13 ± 0.31	60.11 ± 1.90	68.99 ± 1.88	78.03 ± 1.51	382	49.13 ± 0.31	62 ± 0.78	69.1 ± 2.01	125	40.01 ± 2.06 ^ns %	50.11 ± 1.31	59.11 ± 2.13	65.19 ± 1.28	IC50 [3]: 382 µM; inhibition at 125 µg/mL [3, 8]: 49.3 ± 2.32%; inhibition at 250 µg/mL [3, 8]: 56.1 ± 1.51%; inhibition at 500 µg/mL [3, 8]: 62.5 ± 1.37%; inhibition at 1000 µg/mL [3, 8]: 70.1 ± 1.4%; inhibition at 250 µg/mL [4]: 55.5 ± 0.8%; inhibition at 62.5 µg/mL [5]: 43.2 ± 3.01%; inhibition at 62.5 µg/mL [6]: 43 ± 1.06%
O=COC(O)O [Compound XI, methanetriol mano formate]	95	46.22 ± 0.60	62.13 ± 1.08	71.17 ± 2.14	80.41 ± 2.16%	95	46.23 ± 1.49	54.30 ± 1.15	61.04 ± 2.38	70.15 ± 1.16	79.17 ± 0.53	815	–	–	–	98	46.98 ± 2.49 %	54.13 ± 2.17	63.21 ± 1.69	70.91 ± 2.11	DPPH Percent Inhibition (Mean ± S.E.M) ([1]; 125 μg/mL): 54.15 ± 1.28%; inhibition at 250 µg/mL ([3]; 250 μg/mL, n = 3, read-out: Percent AChE (Mean ± SEM), %inhibition): 64.5 ± 3.04%; inhibition at 500 µg/mL ([3]; 500 μg/mL, n = 3, read-out: Percent AChE (Mean ± SEM), %inhibition): 71.2 ± 2.42%; inhibition at 1000 µg/mL ([3]; 1000 μg/mL, n = 3, read-out: Percent AChE (Mean ± SEM), %inhibition): 81.4 ± 2.51%; IC50 [3, 7]: 815 µM; inhibition at 125 µg/mL ([4]; 125 μg/mL, n = 3): 57.1 ± 1.31%; inhibition at 250 µg/mL ([4]; 250 μg/mL, n = 3): 63.7 ± 2.24%; inhibition at 500 µg/mL ([4]; 500 μg/mL, n = 3): 71.2 ± 1.31%; inhibition at 1000 µg/mL ([4]; 1000 μg/mL, n = 3): 81.3 ± 1.41%; Percent Inhibition of α-Amylase (Mean ± S.E.M) (α-amylase; 1000 μg/mL): 81.90 ± 0.73 %; inhibition at 62.5 µg/mL ([5]; 62.5 μg/mL, n = 3): 48.2 ± 3.34%; inhibition at 62.5 µg/mL ([6]; 62.5 μg/mL, n = 3): 48 ± 2.06%
COc1ccc2c3c1O[C@H]1C[C@@H](O)C=C[C@@]31CCN(C)C2 [Galanthamine, reference compound]	–	–	–	–	–	–	–	–	–	–	–	–	64.4 ± 1.85	85.1 ± 2.06	93.89 ± 0.81	–	–	–	–	–	–

Source: paper PMC8036409 (Molecules, 2021)
